From patent publication US12428406B2 (PMV Pharmaceuticals, Inc., priority 2019, dated 2025)

biological target: T1, p53 Y220C (Homo sapiens, UniProt P04637, Y220C); assay: In vitro DNA binding activity assay (HTRF / TR-FRET): stabilization of p53 Y220C and increase of its DNA binding activity; format: biochemical; settings: recombinant His-tagged p53 Y220C DNA binding domain (aa 94-312), biotin-labeled consensus DNA, incubated at 27° C. or 29° C. for 60 min
T1 construct: The recombinant protein was a truncation mutant containing only amino acids 94-312 of p53; made in house; host or cells: E. coli
How it was run: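 Compounds from 4.5 mM DMSO stocks, 3-fold serial dilutions; room-temperature incubations of 15 and 20 min. SC150 = concentration raising DNA binding by 50% over no-compound control.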

T1 sequence (P04637 94-312, change not shown): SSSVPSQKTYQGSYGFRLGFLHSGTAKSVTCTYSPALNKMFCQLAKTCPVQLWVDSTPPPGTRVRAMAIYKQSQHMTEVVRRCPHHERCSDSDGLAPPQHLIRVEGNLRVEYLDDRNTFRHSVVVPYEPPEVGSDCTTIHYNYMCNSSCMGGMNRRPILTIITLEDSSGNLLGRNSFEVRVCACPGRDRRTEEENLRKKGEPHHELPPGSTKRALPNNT

SMILES	SC150 (concentration of the compound required to increase the DNA binding activity by 50%)
CNC(=O)c1ccc(NCC#Cc2cc3c(N[C@H]4CC[C@H](N5CC6(CCOCC6)C5)CC4)cccc3n2CC(F)(F)F)c(OC)c1 [Compound 295A, 3-methoxy-N-methyl-4-{[3-(4-{[(1R,4R)-4-{7-oxa-2-azaspiro[3.5]nonan-2-yl}cyclo-hexyl]amino}-1-(2,2,2-trifluoroethyl)-1H-indol-2-yl)prop-2-yn-1-yl]amino}benzamide]	+ (+ = 0 μM ≤ SC150 < 0.05 μM)
COc1cc(S(=O)(=O)N2CCOCC2)ccc1NCC#Cc1cc2c(NC3CCOCC3)cccc2n1CC(F)(F)F [Compound 1002A, 2-(3-{[2-methoxy-4-(morpholine-4-sulfonyl)phenyl]amino}prop-1-yn-1-yl)-N-(oxan-4-yl)-1-(2,2,2-trifluoroethyl)-1H-indol-4-amine]	+ (+ = 0 μM ≤ SC150 < 0.05 μM)
CCCn1c(C#CCNc2c(F)cc(S(C)(=O)=O)cc2OC)cc2c(N[C@H]3CCN(C[C@@H](O)COC)C[C@H]3F)cccc21 [Compound 880A]	++++ (++++ = 0.2 μM ≤ SC150 < 1 μM)
COc1cc(S(C)(=O)=O)ccc1NCC#Cc1cc2c(N[C@H]3CC[C@H](N4CC5CC(C4)O5)CC3)cccc2n1CC(F)(F)F [Compound 398A, 2-{3-[(4-methanesulfonyl-2-methoxyphenyl)amino]prop-1-yn-1-yl}-N-[(1R,4R)-4-{6-oxa-3-azabicyclo[3.1.1]heptan-3-yl}cyclohexyl]-1-(2,2,2-trifluoroethyl)-1H-indol-4-amine]	+ (+ = 0 μM ≤ SC150 < 0.05 μM)
CN(C)c1cc(S(C)(=O)=O)ccc1OCC#Cc1cc2c(N[C@H]3CC[C@@H](N(C)C)CC3)cccc2n1CC(F)(F)F [Compound 111A, (1S,4S)-N^4-(2-{3-[2-(dimethylamino)-4-methanesulfonyl-phenoxy]prop-1-yn-1-yl}-1-(2,2,2-trifluoroethyl)-1H-indol-4-yl)-N^1,N^1-dimethylcyclohexane-1,4-diamine]	++++ (++++ = 0.2 μM ≤ SC150 < 1 μM)
CS(=O)(=O)c1ccc(NCC#Cc2cc3c(N[C@H]4CC[C@@H](N5CC6(CCOCC6)C5)CC4)cccc3n2CC(F)(F)F)c(OCC#N)c1 [Compound 304A, 2-(5-methanesulfonyl-2-{[3-(4-{[(1S,4S)-4-{7-oxa-2-azaspiro[3.5]nonan-2-yl}cyclohexyl]amino}-1-(2,2,2-trifluoroethyl)-1H-indol-2-yl)prop-2-yn-1-yl]amino}phenoxy)acetonitrile]	+ (+ = 0 μM ≤ SC150 < 0.05 μM)
COc1cc(S(C)(=O)=O)ccc1NCC#Cc1cc2c(N[C@H]3CCOC[C@H]3OC)cccc2n1CC(F)(F)F [Compound 1024A, 2-(3-((2-methoxy-4-(methylsulfonyl)phenyl)amino)prop-1-yn-1-yl)-N-((3S,4S)-3-methoxytetrahydro-2H-pyran-4-yl)-1-(2,2,2-trifluoroethyl)-1H-indol-4-amine]	+ (+ = 0 μM ≤ SC150 < 0.05 μM)
COCC(CNC(=O)c1ccc(NCC#Cc2cc3c(N[C@@H]4CCN(C)C[C@@H]4F)cccc3n2CC(F)(F)F)c(OC)c1)OC(=O)C(C)C (stereo partly drawn) [Compound 1055A, 1-[(4-{[3-(4-{[(3S,4R)-3-fluoro-1-methylpiperidin-4-yl]amino}-1-(2,2,2-trifluoroethyl)-1H-indol-2-yl)prop-2-yn-1-yl]amino}-3-methoxyphenyl)formamido]-3-methoxypropan-2-yl 2-methylpropanoate]	+ (+ = 0 μM ≤ SC150 < 0.05 μM)
COc1cc(S(C)(=O)=O)ccc1NCC#Cc1cc2c(NC3CC4(CNC4)C3)cccc2n1CC(F)(F)F [Compound 22A, N-{2-azaspiro[3.3]heptan-6-yl}-2-{3-[(4-methane-sulfonyl-2-methoxy-phenyl)amino]prop-1-yn-1-yl}-1-(2,2,2-trifluoroethyl)-1H-indol-4-amine]	+ (+ = 0 μM ≤ SC150 < 0.05 μM)
COc1cc(S(=O)(=O)Nc2ccon2)ccc1NCC#Cc1cc2c(N[C@H]3CC[C@H](N(C)C)CC3)cccc2n1CC(F)(F)F [Compound 48A, 3-methoxy-N-(1,2-oxazol-3-yl)-4-{[3-(4-{[(1R,4R)-4-(dimethylamino)cyclo-hexyl]amino}-l-(2,2,2-trifluoroethyl)-1H-indol-2-yl)prop-2-yn-1-yl]amino}benzene-1-sulfonamide]	+ (+ = 0 μM ≤ SC150 < 0.05 μM)
COc1cc(Cl)ccc1NCC#Cc1cc2c(N[C@H]3CC[C@H](N(C)C)CC3)cccc2n1CC(F)(F)F [Compound 130A, (1R,4R)—N^4-(2-{3-[(4-chloro-2-methoxyphenyl)amino]prop-1-yn-1-yl}-1-(2,2,2-trifluoroethyl)-1H-indol-4-yl)-N^1,N^1-dimethylcyclohexane-1,4-diamine]	+ (+ = 0 μM ≤ SC150 < 0.05 μM)
COCC(CN1CCC(Nc2cccc3c2cc(C#CCNc2ccc(S(C)(=O)=O)cc2OC)n3CC(F)(F)F)CC1)OC(=O)C(C)C (stereo not shown) [Compound 603A, 1-{4-[(2-{3-[(4-methanesulfonyl-2-methoxyphenyl)amino]prop-1-yn-1-yl}-1-(2,2,2-trifluoroethyl)-1H-indol-4-yl)amino]piperidin-1-yl}-3-methoxypropan-2-yl 2-methylpropanoate]	+ (+ = 0 μM ≤ SC150 < 0.05 μM)
COc1cc(S(=O)(=O)N(C)C)ccc1NCC#Cc1cc2c(N[C@H]3CC[C@H](N4CC5(COC5)C4)CC3)cccc2n1CC(F)(F)F [Compound 267A, 4-((3-(4-(((1R,4R)-4-(2-oxa-6-azaspiro[3.3]heptan-6-yl)cyclo-hexyl)amino)-1-(2,2,2-trifluoroethyl)-1H-indol-2-yl)prop-2-yn-1-yl)amino)-3-methoxy-N,N-dimethylbenzene-sulfonamide]	+ (+ = 0 μM ≤ SC150 < 0.05 μM)
COc1cc(S(N)(=O)=O)ccc1NCC#Cc1cc2c(NC3CCC4(CC3)OCCO4)cccc2n1CC(F)(F)F [Compound 63A, 4-({3-[4-({1,4-dioxaspiro[4.5]decan-8-yl}amino)-1-(2,2,2-trifluoroethyl)-1H-indol-2-yl]prop-2-yn-1-yl}amino)-3-methoxy-benzene-1-sulfonamide]	+ (+ = 0 μM ≤ SC150 < 0.05 μM)
CCN(CC)[C@H]1CC[C@H](Nc2cccc3c2cc(C#CCNc2ccc(C(=O)NC)cc2OC)n3CC(F)(F)F)CC1 [Compound 144A, 3-methoxy-N-methyl-4-{[3-(4-([(1R,4R)-4-(diethylamino)cyclohexyl]amino}-1-(2,2,2-trifluoro-ethyl)-1H-indol-2-yl)prop-2-yn-1-yl]amino}benzamide]	+ (+ = 0 μM ≤ SC150 < 0.05 μM)
CNC(=O)c1ccc(NCC#Cc2cc3c(N[C@H]4CC[C@@H](N5CC6(COC6)C5)CC4)cccc3n2CC(F)(F)F)c(OCCF)c1 [Compound 241A, 3-(2-fluoroethoxy)-N-methyl-4-{[3-(4-{[(1S,4S)-4-{2-oxa-6-azaspiro[3.3]heptan-6-yl}cyclohexyl]amino}-1-(2,2,2-trifluoroethyl)-1H-indol-2-yl)prop-2-yn-1-yl]amino}benzamide]	+ (+ = 0 μM ≤ SC150 < 0.05 μM)
